Laboratory results from the supplement of paper PMC10883282.
Counter-ions that a name gives are not always drawn. ± gives the standard deviation of the averaged measurements.

System: VA-ES-BJ
Experiment: relative viability vs DMSO control (72 h) (fraction); higher = more viable cells
In short: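 Sarcoma cell lines were seeded in 384-well plates at densities chosen for 80–90% confluence, then 24 h later given 2.5 µl of serially diluted compound drawn from source plates spanning 10 mM to 0.0002 mM. They were held 72 h at 37 °C, 5% CO2, with 0.1% DMSO vehicle and a 5 µM positive control included. Relative viability was read with ATPLite as percent growth and averaged over up to triplicate wells. Rescaling placed full at 1 and none at 0.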

C[C@@H]1COCCN1c1cc(-c2ccnn2C)c2ccnc(-c3ccn[nH]3)c2n1
relative viability (0.00017 µM): 1.02 ± 0.024 | relative viability (0.00051 µM): 1.02 ± 0.03 | relative viability (0.00152 µM): 1.01 ± 0.0075 | relative viability (0.00457 µM): 1.05 ± 0.018 | relative viability (0.01372 µM): 0.97 ± 0.07 | relative viability (0.04115 µM): 0.739 ± 0.039 | relative viability (0.1235 µM): 0.464 ± 0.038 | relative viability (0.3704 µM): 0.212 ± 0.015 | relative viability (1.111 µM): 0.191 ± 0.0065 | relative viability (3.333 µM): 0.19 ± 0.015 | relative viability (10 µM): 0.173 ± 0.019

CCN1CCN(Cc2ccc(Nc3ncc(F)c(-c4cc(F)c5nc(C)n(C(C)C)c5c4)n3)nc2)CC1 [Abemaciclib]
relative viability (0.00017 µM): 1.02 ± 0.014 | relative viability (0.00051 µM): 1.03 ± 0.0088 | relative viability (0.00152 µM): 1.015 ± 0.0082 | relative viability (0.00457 µM): 1 ± 0.019 | relative viability (0.01372 µM): 0.994 ± 0.037 | relative viability (0.04115 µM): 0.92 ± 0.042 | relative viability (0.1235 µM): 0.779 ± 0.032 | relative viability (0.3704 µM): 0.694 ± 0.018 | relative viability (1.111 µM): 0.681 ± 0.023 | relative viability (3.333 µM): 0.562 ± 0.021 | relative viability (10 µM): 0.427 ± 0.056

CCc1cc2c(cc1N1CCC(N3CCOCC3)CC1)C(C)(C)c1[nH]c3cc(C#N)ccc3c1C2=O [Alectinib]
relative viability (0.00017 µM): 1.03 ± 0.047 | relative viability (0.00051 µM): 1.07 ± 0.042 | relative viability (0.00152 µM): 1.04 ± 0.057 | relative viability (0.00457 µM): 1.04 ± 0.027 | relative viability (0.01372 µM): 1.02 ± 0.041 | relative viability (0.04115 µM): 1.06 ± 0.048 | relative viability (0.1235 µM): 1.04 ± 0.0046 | relative viability (0.3704 µM): 0.891 ± 0.27 | relative viability (1.111 µM): 0.912 ± 0.26 | relative viability (3.333 µM): 0.941 ± 0.24 | relative viability (10 µM): 0.905 ± 0.25

Cc1nc(NC(=O)N2CCC[C@H]2C(N)=O)sc1-c1ccnc(C(C)(C)C(F)(F)F)c1 [Alpelisib]
relative viability (0.00017 µM): 1.062 ± 0.0069 | relative viability (0.00051 µM): 1.03 ± 0.048 | relative viability (0.00152 µM): 1.03 ± 0.022 | relative viability (0.00457 µM): 0.992 ± 0.054 | relative viability (0.01372 µM): 0.981 ± 0.04 | relative viability (0.04115 µM): 0.94 ± 0.045 | relative viability (0.1235 µM): 0.924 ± 0.045 | relative viability (0.3704 µM): 0.833 ± 0.019 | relative viability (1.111 µM): 0.741 ± 0.021 | relative viability (3.333 µM): 0.61 ± 0.01 | relative viability (10 µM): 0.378 ± 0.011

Cn1cc(-c2cc3c(N4CCN(c5ncc([C@@](C)(N)c6ccc(F)cc6)cn5)CC4)ncnn3c2)cn1 [Avapritinib]
relative viability (0.00017 µM): 1.02 ± 0.013 | relative viability (0.00051 µM): 1.01 ± 0.025 | relative viability (0.00152 µM): 1 ± 0.013 | relative viability (0.00457 µM): 1.01 ± 0.03 | relative viability (0.01372 µM): 0.998 ± 0.057 | relative viability (0.04115 µM): 0.993 ± 0.023 | relative viability (0.1235 µM): 0.971 ± 0.039 | relative viability (0.3704 µM): 0.98 ± 0.031 | relative viability (1.111 µM): 0.975 ± 0.011 | relative viability (3.333 µM): 0.956 ± 0.034 | relative viability (10 µM): 0.979 ± 0.028

CC(C)NC(=O)C1CCC(n2c(NC(=O)c3ccc(F)cc3)nc3ccc(CN4CCC(C(C)(C)O)CC4)cc32)CC1 (centres undefined) [Belizatinib]
relative viability (0.00017 µM): 1.05 ± 0.04 | relative viability (0.00051 µM): 1.07 ± 0.059 | relative viability (0.00152 µM): 1.05 ± 0.064 | relative viability (0.00457 µM): 1.04 ± 0.018 | relative viability (0.01372 µM): 1.08 ± 0.022 | relative viability (0.04115 µM): 1.06 ± 0.046 | relative viability (0.1235 µM): 1 ± 0.017 | relative viability (0.3704 µM): 0.926 ± 0.014 | relative viability (1.111 µM): 0.658 ± 0.012 | relative viability (3.333 µM): 0.359 ± 0.012 | relative viability (10 µM): 0.164 ± 0.0087

Cn1cnc2c(F)c(Nc3ccc(Br)cc3F)c(C(=O)NOCCO)cc21 [Binimetinib]
relative viability (0.00017 µM): 1.06 ± 0.011 | relative viability (0.00051 µM): 1.09 ± 0.032 | relative viability (0.00152 µM): 1.07 ± 0.037 | relative viability (0.00457 µM): 1.02 ± 0.028 | relative viability (0.01372 µM): 1.02 ± 0.044 | relative viability (0.04115 µM): 0.966 ± 0.027 | relative viability (0.1235 µM): 0.946 ± 0.071 | relative viability (0.3704 µM): 0.921 ± 0.069 | relative viability (1.111 µM): 0.879 ± 0.046 | relative viability (3.333 µM): 0.794 ± 0.041 | relative viability (10 µM): 0.689 ± 0.058

Nc1cc(C(F)(F)F)c(-c2cc(N3CCOCC3)nc(N3CCOCC3)n2)cn1 [Buparlisib]
relative viability (0.00017 µM): 1.01 ± 0.043 | relative viability (0.00051 µM): 1 ± 0.053 | relative viability (0.00152 µM): 0.999 ± 0.027 | relative viability (0.00457 µM): 1.01 ± 0.032 | relative viability (0.01372 µM): 0.997 ± 0.035 | relative viability (0.04115 µM): 0.983 ± 0.055 | relative viability (0.1235 µM): 0.875 ± 0.058 | relative viability (0.3704 µM): 0.663 ± 0.018 | relative viability (1.111 µM): 0.316 ± 0.0056 | relative viability (3.333 µM): 0.189 ± 0.0041 | relative viability (10 µM): 0.1818 ± 0.0013

CNC(=O)c1ccc(-c2cnc3ncc(Cc4ccc5ncccc5c4)n3n2)cc1F [Capmatinib]
relative viability (0.00017 µM): 1.06 ± 0.068 | relative viability (0.00051 µM): 1.03 ± 0.042 | relative viability (0.00152 µM): 1.01 ± 0.062 | relative viability (0.00457 µM): 0.943 ± 0.04 | relative viability (0.01372 µM): 0.87 ± 0.016 | relative viability (0.04115 µM): 0.844 ± 0.03 | relative viability (0.1235 µM): 0.839 ± 0.01 | relative viability (0.3704 µM): 0.844 ± 0.017 | relative viability (1.111 µM): 0.878 ± 0.059 | relative viability (3.333 µM): 0.88 ± 0.035 | relative viability (10 µM): 0.855 ± 0.036

COc1cc2c(Oc3ccc4[nH]c(C)cc4c3F)ncnc2cc1OCCCN1CCCC1 [Cediranib]
relative viability (0.00017 µM): 1.05 ± 0.045 | relative viability (0.00051 µM): 1.03 ± 0.055 | relative viability (0.00152 µM): 1.04 ± 0.048 | relative viability (0.00457 µM): 1.06 ± 0.038 | relative viability (0.01372 µM): 1.04 ± 0.029 | relative viability (0.04115 µM): 1.07 ± 0.067 | relative viability (0.1235 µM): 1.09 ± 0.068 | relative viability (0.3704 µM): 1.13 ± 0.065 | relative viability (1.111 µM): 1.15 ± 0.051 | relative viability (3.333 µM): 1.15 ± 0.022 | relative viability (10 µM): 1.13 ± 0.01

COc1c(OCCCN2CCOCC2)ccc2c1N=C(NC(=O)c1cnc(N)nc1)N1CCN=C21 [Copanlisib]
relative viability (0.00017 µM): 1.09 ± 0.027 | relative viability (0.00051 µM): 0.983 ± 0.071 | relative viability (0.00152 µM): 1.066 ± 0.0069 | relative viability (0.00457 µM): 0.74 ± 0.026 | relative viability (0.01372 µM): 0.594 ± 0.029 | relative viability (0.04115 µM): 0.484 ± 0.017 | relative viability (0.1235 µM): 0.42 ± 0.022 | relative viability (0.3704 µM): 0.396 ± 0.041 | relative viability (1.111 µM): 0.406 ± 0.019 | relative viability (3.333 µM): 0.394 ± 0.095 | relative viability (10 µM): 0.304 ± 0.16

CN1CCN(c2ccc3nc(-c4c(N)c5c(F)cccc5[nH]c4=O)[nH]c3c2)CC1 [Dovitinib]
relative viability (0.00017 µM): 1.06 ± 0.027 | relative viability (0.00051 µM): 1.06 ± 0.028 | relative viability (0.00152 µM): 1.08 ± 0.044 | relative viability (0.00457 µM): 1.08 ± 0.028 | relative viability (0.01372 µM): 1.07 ± 0.029 | relative viability (0.04115 µM): 1.06 ± 0.031 | relative viability (0.1235 µM): 1.05 ± 0.025 | relative viability (0.3704 µM): 0.956 ± 0.0053 | relative viability (1.111 µM): 0.738 ± 0.049 | relative viability (3.333 µM): 0.495 ± 0.021 | relative viability (10 µM): 0.313 ± 0.039

COc1cccc2c1C(=O)c1c(O)c3c(c(O)c1C2=O)C[C@@](O)(C(=O)CO)C[C@@H]3O[C@H]1C[C@H](N)[C@H](O)[C@H](C)O1 [Doxorubicin Hydrochloride]
relative viability (0.00017 µM): 1.03 ± 0.017 | relative viability (0.00051 µM): 1.06 ± 0.08 | relative viability (0.00152 µM): 1.03 ± 0.05 | relative viability (0.00457 µM): 0.99 ± 0.033 | relative viability (0.01372 µM): 0.857 ± 0.064 | relative viability (0.04115 µM): 0.629 ± 0.028 | relative viability (0.1235 µM): 0.386 ± 0.016 | relative viability (0.3704 µM): 0.164 ± 0.012 | relative viability (1.111 µM): 0.189 ± 0.0067 | relative viability (3.333 µM): 0.143 ± 0.035 | relative viability (10 µM): 0.126 ± 0.011

Cc1cnc(Nc2ccc(OCCN3CCCC3)cc2)nc1Nc1cccc(S(=O)(=O)NC(C)(C)C)c1 [Fedratinib]
relative viability (0.00017 µM): 1.06 ± 0.042 | relative viability (0.00051 µM): 1.08 ± 0.013 | relative viability (0.00152 µM): 1.03 ± 0.023 | relative viability (0.00457 µM): 1.05 ± 0.021 | relative viability (0.01372 µM): 1.04 ± 0.013 | relative viability (0.04115 µM): 1 ± 0.037 | relative viability (0.1235 µM): 1.02 ± 0.032 | relative viability (0.3704 µM): 0.781 ± 0.018 | relative viability (1.111 µM): 0.403 ± 0.019 | relative viability (3.333 µM): 0.152 ± 0.0076 | relative viability (10 µM): -0.0115 ± 0.0047
